Test results: patent US20240226062A1, “METHODS AND COMPOSITIONS FOR THE TREATMENT OF DISORDERS CHARACTERIZED BY A KIDINS220 DYSFUNCTION IN A SUBJECT” (priority 2021, published 2024)

Legend:
SNX27-retromer [1] = assay: Immunofluorescence of SNX27-retromer localization in primary cortical neurons under NMDA excitotoxicity; assay type: cell-based, rat
Procedure: (§1) Cell culture, treatment and transfection of primary cortical astrocytes, neurons and HEK293T cells. Mouse cortical astrocytes were prepared from cerebral cortices of 0 to 2-day-old mice pups according to standard methods. Cells seeded on plates or glass coverslips coated with poly-L-lysine (10 μg/ml) and laminin (4 μg/ml) at a density of 5×10^4 cells/cm2 in complete DMEM-F12. After 2 additional days (DIV14-16) astrocytes were treated with vehicle (DMSO), 100 nM bafilomycin Al (Sigma Co.; St. Louis, MO, USA) for 16 h or 10 μM R55 (MedKoo Biosciences, Inc.; Morrisville, NC, USA) for 48 h. Neuronal cultures were prepared from cerebral cortex of 19-day-old Wistar rat embryos, as we have previously described (Lopez-Menendez et al. 2019). Neurons were used after 10 days in vitro (DIV) for immunofluorescence and DIV14 for biochemical assays. Neurons were pretreated or treated for different times as indicated: 50 μM NMDA and 10 μM glycine (Sigma Co.; St. Louis, MO, USA); 200 μM DL-AP5 (Tocris; Bristol, UK); 5 μM […]. Excitotoxicity was induced by treatment with the NMDAR coagonists NMDA and glycine (referred as NMDA treatment). DL-AP5 or […] were added 1 h or 48 h before NMDA treatment, respectively. HEK293T cells were cultured and transfected by standard procedures. HEK293T cells and DIV12-14 primary astrocytes were seeded at 50-60% confluence. […]

SNX27-retromer [2] = assay: Immunoblot of NMDA-induced degradation of SNX27-retromer components and cargos in primary cortical neurons; assay type: cell-based, rat; conditions: 50 μM NMDA and 10 μM glycine; DL-AP5 (200 μM) added 1 h or R55 (5 μM) 48 h before
Procedure: (§2) Cell culture, treatment and transfection of primary cortical astrocytes, neurons and HEK293T cells. Mouse cortical astrocytes were prepared from cerebral cortices of 0 to 2-day-old mice pups according to standard methods. Cells seeded on plates or glass coverslips coated with poly-L-lysine (10 μg/ml) and laminin (4 μg/ml) at a density of 5×10^4 cells/cm2 in complete DMEM-F12. After 2 additional days (DIV14-16) astrocytes were treated with vehicle (DMSO), 100 nM bafilomycin Al (Sigma Co.; St. Louis, MO, USA) for 16 h or 10 μM R55 (MedKoo Biosciences, Inc.; Morrisville, NC, USA) for 48 h. Neuronal cultures were prepared from cerebral cortex of 19-day-old Wistar rat embryos, as we have previously described (Lopez-Menendez et al. 2019). Neurons were used after 10 days in vitro (DIV) for immunofluorescence and DIV14 for biochemical assays. Neurons were pretreated or treated for different times as indicated: 50 μM NMDA and 10 μM glycine (Sigma Co.; St. Louis, MO, USA); 200 μM DL-AP5 (Tocris; Bristol, UK); 5 μM R55. Excitotoxicity was induced by treatment with the NMDAR coagonists NMDA and glycine (referred as NMDA treatment). DL-AP5 or R55 were added 1 h or 48 h before NMDA treatment, respectively. HEK293T cells were cultured and transfected by standard procedures. HEK293T cells and DIV12-14 primary astrocytes were seeded at 50-60% confluence. Two days later cells were transfected in Opti-MEM by using 0.7 μl of Lipofectamine 2000@ reagent (ThermoFisher Scientific) and 0.7 μg of DNA per 24 multi-well plate, according to the manufacturer's specifications. Cells were fixed and processed for immunofluorescence or washed with PBS to prepare protein extracts for immunoprecipitation experiments.
Preparation of protein extracts, immunoprecipitation, and immunoblot analysis. Protein extracts from mice tissue, primary cell cultures or HEK293T cells were prepared in RIPA by standard methods. Briefly, cultured cells were lysed in RIPA buffer (25 mM Tris-HCl, pH 7.6, 1% Triton X-100, 0.5% sodium deoxycholate, 0.1% SDS, 150 mM NaCl) with protease and phosphatase inhibitors for 30 min at 4° C. Lysates were centrifuged for 30 min at 14,000 rpm at 4° C., and resulting supernatant was considered the total lysate soluble fraction. Different mouse tissues were dissected, frozen in dry ice and homogenized in RIPA buffer as above using potter and Polytron homogenizers. For immunoprecipitation, total lysates were incubated with anti-VPS35 or anti-GFP antibody for 4 h at 4° C., before binding immunocomplexes to protein A sepharose beads for 1 h at 4° C. Beads were washed four times with RIPA buffer before adding Laemli sample buffer. Note that sample boiling was avoided to detect properly AQP4 band by immunoblots. Equal amounts of total lysates or immunoprecipitates were resolved in SDS-PAGE and analysed by immunoblot. Membranes were incubated with different primary and secondary antibodies and immunoreactive bands were detected by ECL (PerkinElmer, Waltham, MA USA). Immunoblot images have been cropped for presentation.
Quantitative and statistical analysis. Immunoblot signals were quantified by densitometric analysis with ImageJ 1.47d software (NIH) and normalized using β-actin, α-tubulin or GFAP band signal intensities. Data were expressed relative to values obtained in their respective untreated controls or WT mice or astrocytes. For immunofluorescence quantitative analysis of mice and human brain samples, fluorescence intensity of specific antibodies was measured at the ependymal barrier of lateral ventricles using ImageJ 1.47d software (NIH). Specific ROIs were defined in each brain section at the ependymal barrier boundaries, identified by DAPI staining of ependymal cell nuclei. In those regions, fluorescence signal above a certain threshold, stablished as background, was quantified. In the case of human brain necropsies, nine randomly selected ROIs were used for the analysis. […]

primary cortical neurons [3] = conditions: DL-AP5 preincubation; Lopez-Menendez et al. 2009; cited from earlier work
[4] = tested on: mouse model with plaques and tangles; conditions: AD mouse model, Li et al. 2020; cited from earlier work
[5] = tested on: trimeric Vps35-Vps29-Vps26 core; conditions: Mecozzi et al. 2014; cited from earlier work
SNX27-retromer [6] = molecular target: T1, SNX27-retromer (Mus musculus, UniProt Q9EQH3+Q9QZ88); assay: Immunoblot of retromer complex and cargo protein levels in cultured astrocytes treated with R55; assay type: cell-based; conditions: 10 μM R55 for 48 h
T1 construct: endogenous in cells; host or cells: primary mouse cortical astrocytes
Procedure: Cell culture, treatment and transfection of primary cortical astrocytes, neurons and HEK293T cells. Mouse cortical astrocytes were prepared from cerebral cortices of 0 to 2-day-old mice pups according to standard methods. Cells seeded on plates or glass coverslips coated with poly-L-lysine (10 μg/ml) and laminin (4 μg/ml) at a density of 5×10^4 cells/cm2 in complete DMEM-F12. After 2 additional days (DIV14-16) astrocytes were treated with vehicle (DMSO), 100 nM bafilomycin Al (Sigma Co.; St. Louis, MO, USA) for 16 h or 10 μM R55 (MedKoo Biosciences, Inc.; Morrisville, NC, USA) for 48 h. Neuronal cultures were prepared from cerebral cortex of 19-day-old Wistar rat embryos, as we have previously described (Lopez-Menendez et al. 2019). Neurons were used after 10 days in vitro (DIV) for immunofluorescence and DIV14 for biochemical assays. Neurons were pretreated or treated for different times as indicated: 50 μM NMDA and 10 μM glycine (Sigma Co.; St. Louis, MO, USA); 200 μM DL-AP5 (Tocris; Bristol, UK); 5 μM R55. Excitotoxicity was induced by treatment with the NMDAR coagonists NMDA and glycine (referred as NMDA treatment). DL-AP5 or R55 were added 1 h or 48 h before NMDA treatment, respectively. […]
Preparation of protein extracts, immunoprecipitation, and immunoblot analysis. […] Equal amounts of total lysates or immunoprecipitates were resolved in SDS-PAGE and analysed by immunoblot. Membranes were incubated with different primary and secondary antibodies and immunoreactive bands were detected by ECL (PerkinElmer, Waltham, MA USA). […]
Quantitative and statistical analysis. Immunoblot signals were quantified by densitometric analysis with ImageJ 1.47d software (NIH) and normalized using β-actin, α-tubulin or GFAP band signal intensities. […] For immunofluorescence quantitative analysis of mice and human brain samples, fluorescence intensity of specific antibodies was measured at the ependymal barrier of lateral ventricles using ImageJ 1.47d software (NIH). […] In those regions, fluorescence signal above a certain threshold, stablished as background, was quantified. […]

primary cortical neurons [7] = assay: Neuronal viability under NMDAR-induced excitotoxicity (MTT reduction assay, MAP2 staining); assay type: cell-based, rat; conditions: neurons incubated with NMDA for 6 h, R55 5 μM added 48 h before
Procedure: as §1

AQP4 = assay: Effect of bafilomycin A1 on protein levels in WT and Kidins220^f/f astrocytes (immunofluorescence and immunoblot); assay type: cell-based, mouse; conditions: for AQP4 levels: 100 nM bafilomycin A1 for 16 h
Procedure: as §2
Preparation of protein extracts, immunoprecipitation, and immunoblot analysis. Protein extracts from mice tissue, primary cell cultures or HEK293T cells were prepared in RIPA by standard methods. Briefly, cultured cells were lysed in RIPA buffer (25 mM Tris-HCl, pH 7.6, 1% Triton X-100, 0.5% sodium deoxycholate, 0.1% SDS, 150 mM NaCl) with protease and phosphatase inhibitors for 30 min at 4° C. Lysates were centrifuged for 30 min at 14,000 rpm at 4° C., and resulting supernatant was considered the total lysate soluble fraction. […] Equal amounts of total lysates or immunoprecipitates were resolved in SDS-PAGE and analysed by immunoblot. Membranes were incubated with different primary and secondary antibodies and immunoreactive bands were detected by ECL (PerkinElmer, Waltham, MA USA). […]
Quantitative and statistical analysis. Immunoblot signals were quantified by densitometric analysis with ImageJ 1.47d software (NIH) and normalized using β-actin, α-tubulin or GFAP band signal intensities. […]

[8] = Kidins220^f/f deficient astrocytes, bafilomycin A1 treatment (not shown)

NC(CCCP(=O)(O)O)C(=O)O (racemic) [DL-AP5]
SNX27-retromer intracellular organization and colocalization of SNX27 and VPS35 (Pearson's correlation coefficient) (SNX27-retromer [1]; neurons pretreated 1 h with 200 μM DL-AP5, then 50 μM NMDA and 10 μM glycine): preserved | NMDA-induced degradation of FAM21 (SNX27-retromer [2]): blocked | NMDA-induced degradation of GluN2B subunit of the NMDAR (SNX27-retromer [2]): decreasing | NMDA-induced degradation of SNX27 (SNX27-retromer [2]): blocked | NMDA-induced degradation of SNX27-retromer cargo Kidins220 (SNX27-retromer [2]): decreasing | cleavage of the calpain substrate spectrin into breakdown products (BDPs) (SNX27-retromer [2]): reduced | neuronal survival (primary cortical neurons [3]): preserves

Cl.N=C(N)SCc1cccs1 [R33, thiophen-2-ylmethyl carbamimidothioate hydrochloride]
VPS35 levels [4]: elevation | amyloid-beta (Aβ) levels and deposition [4]: significant decrease | astrocytes activation [4]: less | learning and memory [4]: significant improvement | synaptic integrity [4]: improved | tau phosphorylation [4]: reduced | retromer levels [5]: increased | retromer-mediated trafficking of cargos [5]: enhanced

Cl.Cl.N=C(N)SCc1ccc(CSC(=N)N)s1 [R55, thiophene-2,5-diylbis(methylene) dicarbamimidothioate dihydrochloride]
AQP4 content (SNX27-retromer [6]): increased | Kidins220 levels (SNX27-retromer [6]): mild effect on elevating | VPS35 levels (SNX27-retromer [6]): mild effect on elevating | SNX27, FAM21 and VPS35 localization in endocytic vesicles (SNX27-retromer [1]; neurons pretreated 48 h with 5 μM R55, then excitotoxic NMDA): preserved | NMDA-induced degradation of FAM21 (SNX27-retromer [2]): decreasing | NMDA-induced degradation of GluN2B subunit of the NMDAR (SNX27-retromer [2]): decreasing | NMDA-induced degradation of SNX27 (SNX27-retromer [2]): decreasing | NMDA-induced degradation of SNX27-retromer cargo Kidins220 (SNX27-retromer [2]): decreasing | cleavage of the calpain substrate spectrin into breakdown products (BDPs) (SNX27-retromer [2]): diminishment | neuroprotection (MAP2 immunofluorescence and MTT-viability assays) (primary cortical neurons [7]): strong neuroprotection | retromer levels [5]: increased | retromer-mediated trafficking of cargos [5]: enhanced

CO/C1=C\C(C)=C\[C@@H](C)[C@@H](O)[C@@H](C)C/C(C)=C/C=C/[C@H](OC)[C@@H]([C@@H](C)[C@@H](O)[C@H](C)[C@@]2(O)C[C@@H](O)[C@H](C)[C@@H](C(C)C)O2)OC1=O [bafilomycin A1]
AQP4 levels (AQP4; Kidins220^f/f astrocytes): significant increase | loss of SNX27 (AQP4; [8]): not rescued | loss of VPS35 (AQP4; [8]): not rescued | AQP4 levels (AQP4; WT astrocytes): significant increase
